Data published in the supplement of paper PMC10307832.

What was measured:
Assay in all cases: relative viability (nuclei count vs DMSO), 5 days (fraction); higher = more cells survive
KIN001-266 + Decitabine = compound: CCN1CCC(CC1)N2C=C(N=N2)CNC3=CC4=C(C(=CN=C4C(=C3)Cl)C#N)NC5=CC(=C(C=C5)F)Cl [KIN001-266] + Nc1ncn([C@H]2C[C@H](O)[C@@H](CO)O2)c(=O)n1 [Decitabine] (partner 2 µM)
Outline: (§1)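 Dosing by pin tool came one day after lung cancer cell lines were seeded in 1536-well plates, using either one drug or a fixed anchor-drug dose plus five library-drug doses (not always all listed) in √10 steps. After 5 days, nuclei were counted on 4× images. Relative viability is treated-well nuclei count divided by vehicle-well nuclei count, and values are medians of duplicate plates.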

KIN001-266 + Crizotinib = compound: CCN1CCC(CC1)N2C=C(N=N2)CNC3=CC4=C(C(=CN=C4C(=C3)Cl)C#N)NC5=CC(=C(C=C5)F)Cl [KIN001-266] + C[C@@H](Oc1cc(-c2cnn(C3CCNCC3)c2)cnc1N)c1c(Cl)ccc(F)c1Cl [Crizotinib] (partner 1 µM)
Outline: as §1

KIN001-266 + Phenformin = compound: CCN1CCC(CC1)N2C=C(N=N2)CNC3=CC4=C(C(=CN=C4C(=C3)Cl)C#N)NC5=CC(=C(C=C5)F)Cl [KIN001-266] + N=C(N)NC(=N)NCCc1ccccc1 [Phenformin] (partner 250 µM)
Outline: as §1

KIN001-266 + Navitoclax = compound: CCN1CCC(CC1)N2C=C(N=N2)CNC3=CC4=C(C(=CN=C4C(=C3)Cl)C#N)NC5=CC(=C(C=C5)F)Cl [KIN001-266] + CC1(C)CCC(c2ccc(Cl)cc2)=C(CN2CCN(c3ccc(C(=O)NS(=O)(=O)c4ccc(N[C@H](CCN5CCOCC5)CSc5ccccc5)c(S(=O)(=O)C(F)(F)F)c4)cc3)CC2)C1 [Navitoclax] (partner 0.5 µM)
Outline: as §1

Cell Line	relative viability (KIN001-266 + Decitabine; first compound 0.08 µM)	relative viability (KIN001-266 + Decitabine; first compound 0.253 µM)	relative viability (KIN001-266 + Decitabine; first compound 0.8 µM)	relative viability (KIN001-266 + Decitabine; first compound 2.53 µM)	relative viability (KIN001-266 + Decitabine; first compound 8 µM)	relative viability (KIN001-266 + Crizotinib; first compound 0.08 µM)	relative viability (KIN001-266 + Crizotinib; first compound 0.253 µM)	relative viability (KIN001-266 + Crizotinib; first compound 0.8 µM)	relative viability (KIN001-266 + Crizotinib; first compound 2.53 µM)	relative viability (KIN001-266 + Crizotinib; first compound 8 µM)	relative viability (KIN001-266 + Phenformin; first compound 0.08 µM)	relative viability (KIN001-266 + Phenformin; first compound 0.253 µM)	relative viability (KIN001-266 + Phenformin; first compound 0.8 µM)	relative viability (KIN001-266 + Phenformin; first compound 2.53 µM)	relative viability (KIN001-266 + Phenformin; first compound 8 µM)	relative viability (KIN001-266 + Navitoclax; first compound 0.08 µM)	relative viability (KIN001-266 + Navitoclax; first compound 0.253 µM)	relative viability (KIN001-266 + Navitoclax; first compound 0.8 µM)	relative viability (KIN001-266 + Navitoclax; first compound 2.53 µM)	relative viability (KIN001-266 + Navitoclax; first compound 8 µM)
NCI-H727	0.9	0.954	0.744	0.755	0.643	0.79	0.812	0.753	0.825	0.405	0.612	0.615	0.509	0.595	0.364	0.337	0.557	0.484	0.577	0.183
NCI-H838	0.476	0.488	0.454	0.423	0.371	0.873	0.849	0.965	0.844	0.689	0.668	0.624	0.595	0.574	0.427	1.09	1.19	1.22	1.08	0.867
NCI-H1355	0.365	0.352	0.357	0.374	0.346	1.12	1.04	1.09	0.966	0.939	0.454	0.419	0.441	0.414	0.373	0.981	0.955	0.963	0.873	0.812
NCI-H1437	0.564	0.542	0.556	0.504	0.567	0.896	0.973	0.924	0.891	0.779	0.346	0.272	0.286	0.291	0.251	1.09	1.11	1.08	1.12	0.911
NCI-H1650	0.396	0.43	0.426	0.544	0.388	1.14	0.911	1.11	0.817	0.61	0.479	0.448	0.326	0.261	0.305	1.09	1.1	1.23	1.15	0.985
NCI-H1651	0.629	0.599	0.546	0.572	0.634	0.935	0.872	0.876	0.853	0.823	0.355	0.383	0.316	0.508	0.325	0.954	1.04	1.1	0.949	1.05
NCI-H1666	0.806	0.737	0.662	0.725	0.754	0.963	1.21	1.01	0.964	0.797	0.547	0.627	0.573	0.581	0.574	1.06	0.983	0.852	0.91	0.847
NCI-H1734	0.513	0.512	0.421	0.48	0.433	0.647	0.601	0.589	0.681	0.51	0.416	0.387	0.405	0.357	0.321	0.789	0.839	0.612	0.808	0.61
NCI-H1755	0.67	0.735	0.647	0.654	0.707	0.942	0.798	0.836	0.826	0.718	0.643	0.62	0.625	0.621	0.549	1.01	0.985	0.981	0.992	0.799
NCI-H1792	0.543	0.562	0.508	0.522	0.463	0.975	0.898	0.932	0.971	0.968	0.26	0.223	0.17	0.123	0.265	0.601	0.627	0.581	0.652	0.661
NCI-H1915	0.28	0.287	0.249	0.265	0.278	0.895	0.87	0.902	0.918	0.851	0.365	0.379	0.354	0.379	0.36	0.766	0.79	0.74	0.758	0.742
NCI-H1944	0.421	0.459	0.401	0.415	0.393	1.13	1.13	1.1	1.08	1.24	0.208	0.194	0.186	0.199	0.164	1.03	1.05	0.991	1.04	1.04
NCI-H1975	0.391	0.373	0.377	0.404	0.39	1.04	0.928	0.964	0.966	0.842	0.416	0.402	0.431	0.422	0.36	1.16	1.04	1.13	1.11	1.09
NCI-H1993	0.66	0.563	0.415	0.579	0.607	0.954	0.858	0.982	0.815	0.776	0.505	0.493	0.506	0.49	0.575	1.15	0.96	0.855	0.731	0.681
NCI-H2009	0.394	0.367	0.437	0.357	0.391	1.05	1.05	0.984	0.928	0.901	0.455	0.432	0.441	0.319	0.262	1.14	1.13	1.16	1.07	1.1
